According to PMC9105604, “Parathyroid Hormone-Related Peptide and Its Analog, Abaloparatide, Attenuate Lethal Myocardial Ischemia-Reperfusion Injury” (Journal of Clinical Medicine, 2022):

What was measured:
HL-1 cardiomyocytes [1] = assay: MTT viability of HL-1 cardiomyocytes with or without MEK-ERK inhibitor PD98059 (Protocol 2B)
Experimental: (§2) The primary endpoint for Protocols 1A–C was HL-1 cell viability assessed using the MTT (3-(4,5-dimethythiazol-2-yl)-2,5-diphenyl tetrazolium bromide) assay (Sigma Aldrich, St. Louis, MO, USA). This well-established colorimetric method is based on the reduction of the soluble tetrazolium salt to purple formazan crystals by viable, metabolically active cells and quantified by measuring absorbance at 570 nm [25].
At 24 h after the onset of treatment, cells underwent either 2 h of SI + 24 h reoxygenation or a time-matched period of normoxia (n = 2 independent replicates per group). At 24 h following relief of SI, cell viability was quantified using the MTT assay as described in Protocol 1.

HL-1 cardiomyocytes [2] = assay: MTT viability of HL-1 cardiomyocytes, simulated ischemia-reoxygenation or normoxia (Protocol 1); assay type: cell-based
Experimental: Before initiating experiments, HL-1 cells were grown to ~80% confluence in 95% room air/5% CO2 at 37 °C in Claycomb medium supplemented with fetal bovine serum (10%), L-glutamine (2 mM), norepinephrine (0.1 mM), penicillin (100 U/mL) and streptomycin (100 µg/mL) [21, 22].
At 24 h after the onset of treatment, cells were subjected to 2 h of simulated ischemia (SI) + 24 h reoxygenation. During SI, Claycomb medium containing drug/placebo was replaced with drug-free hypoxia buffer at pH 6.6 (composed of NaCl (125 nM), KCl (8 mM), KH2PO4 (1.2 mM),1.25 mM MgSO4 (1.25 mM), CaCl2 (1.2 mM), NaHCO3 (6.25 mM), HEPES (20 mM), glucose (5.5 mM), 2-deoxy-D-glucose (20 mM), Na-lactate (5 mM): all ingredients from Sigma Aldrich, St. Louis, MO, USA) and the culture plates were sealed in a hermetic chamber with GasPak EZ Gas Generating Sachets (BD Biosciences, San Jose, CA, USA). Reoxygenation was achieved by removing the plates from the sealed chamber and exchanging the hypoxia buffer with serum-free Claycomb medium [21, 22]. Additional time- and treatment-matched normoxic cultures served as controls (n = 4 independent replicates per group).
as §2

phospho-ERK = assay: Immunoblot of phospho-ERK in HL-1 cells after simulated ischemia-reperfusion (Protocol 2A); assay type: cell-based; settings: 10 nM, 24 h pretreatment, 2 h SI + 10 min reoxygenation; n = 3; vehicle 0.33 ± 0.09
Experimental: (§1) At 10 min post-reoxygenation, cells were harvested and lysed in RIPA buffer containing 2 protease and phosphatase inhibitors. The lysates were centrifuged at 14,000× g for 15 min, and the resultant supernatant was collected and probed for the expression of ERK (total and phosphorylated: antibodies from Cell Signaling Technology Inc., Danvers, MA, USA), PI3 kinase/Akt (total and phosphorylated: Cell Signaling Technology Inc., Danvers, MA, USA) and GAPDH (Sigma Aldrich Inc., St. Louis, MO, USA) using standard methods. Immunoreactive bands were identified by incubation with horseradish peroxidase (HRP)-conjugated secondary antibody, visualized using x-ray film, and quantified using the NIH ImageJ software.

phospho-Akt = assay: Immunoblot of phospho-Akt in HL-1 cells after simulated ischemia-reperfusion (Protocol 2A); assay type: cell-based; settings: 10 nM, 24 h pretreatment, 2 h SI + 10 min reoxygenation; n = 3; vehicle 0.14 ± 0.01
Experimental: as §1

[3] = in vivo, cited from earlier work

Row | Compound | HL-1 cell viability under normoxic conditions, alone or in combination (Protocol 2B) (HL-1 cardiomyocytes [1]; peptides 10 nM, PD98059 5 µM, 24 h, normoxia, n = 2, no statistics) | Concentration dependence of % viability / magnitude of protection after SI-reoxygenation (HL-1 cardiomyocytes [2]; 24 h pretreatment, 2 h SI + 24 h reoxygenation, Protocols 1A, 1B, confirmed in 1C) | HL-1 cell viability after SI-reoxygenation (HL-1 cardiomyocytes [2]; 24 h pretreatment, then 2 h simulated ischemia + 24 h reoxygenation, PTHrP(1-36) 10, 100 nM (n = 4), abaloparatide 0.1-100 nM (n = 5), versus vehicle) | HL-1 cell viability under normoxic conditions (HL-1 cardiomyocytes [2]; time- and treatment-matched normoxic cultures) | phospho-ERK expression (normalized to total ERK) (phospho-ERK) | phospho-Akt expression (normalized to GAPDH) (phospho-Akt) | SI-reoxygenation-induced cell death (Protocol 2B) (HL-1 cardiomyocytes [1]; 10 nM, 24 h pretreatment, 2 h SI + 24 h reoxygenation, n = 2, versus vehicle) | Protective effect on HL-1 viability with co-administration of PD98059 (HL-1 cardiomyocytes [1]; peptide 10 nM + PD98059 5 µM, 24 h, then 2 h SI + 24 h reoxygenation, n = 2) | Hemodynamic effects in post-menopausal women with osteoporosis ([3]; sc) | Incidence of adverse cardiac events in treated subjects [3]
1 | COc1cccc(-c2cc(=O)c3ccccc3o2)c1N [PD98059] | neither PTHrP(1-36), abaloparatide, or PD98059, given alone or in combination, had an effect |  |  |  |  |  |  |  |  | 
2 | abaloparatide |  | modestly but significantly greater in cells incubated with 10 nM | significantly better maintained | no effect | modest but significant increase | better preservation | attenuated | abrogated | modest and transient increases in heart rate and decreases in supine blood pressure | no evidence of an increase
